Converted amounts (≈) assume the structure as drawn.
Key:
Type in all cases: cell-based
[1] = test system: Streptococcus pyogenes ATCC19615; assay: MIC, microbroth dilution (NCCLS); conditions: rifS strain, THY Broth, 37° C., read-out: MIC
[2] = test system: Haemophilus influenzae ATCC10211; assay: MIC, microbroth dilution (NCCLS); conditions: rifS strain, BHI Broth with NAD and hematin, 37° C., read-out: MIC
[3] = test system: Staphylococcus aureus ATCC29213; assay: MIC, microbroth dilution (NCCLS); conditions: rifS strain, Cation-Adjusted Mueller-Hinton Broth, 37° C., read-out: MIC
[4] = test system: Staphylococcus aureus MT1222 gyrA^A116E grlB^S80F; assay: microbe, parasite or virus in culture; conditions: cipR strain, Cation-Adjusted Mueller-Hinton Broth, 37° C., read-out: MIC
[5] = test system: Staphylococcus aureus ATCC29213 rpoB^H418Y; assay: microbe, parasite or virus in culture; conditions: Staphylococcus aureus, ATCC29213; rifR strain; Cation-Adjusted Mueller-Hinton Broth, 37° C.; read-out: MIC
[6] = test system: Streptococcus pneumoniae ATCC6303; assay: MIC, microbroth dilution (NCCLS); conditions: rifS strain, THY Broth with 1 mg/mL catalase, 5% CO2, 37° C., read-out: MIC
[7] = test system: Staphylococcus epidermidis ATCC12228; assay: MIC, microbroth dilution (NCCLS); conditions: rifS strain, Cation-Adjusted Mueller-Hinton Broth, 37° C., read-out: MIC

Row | SMILES | MIC [1] | MIC [2] | MIC [3] | MIC [4] | MIC [5] | MIC [6] | MIC [7]
1 | COc1c(N2CCCC(N/N=C/c3c4c(O)c5c(O)c(C)c6c(c5c3O)C(=O)[C@@](C)(O/C=C/[C@H](OC)[C@@H](C)[C@@H](OC(C)=O)[C@H](C)[C@H](O)[C@H](C)[C@@H](O)[C@@H](C)/C=C/C=C(/C)C(=O)N4)O6)C2)c(F)cc2c(=O)c(C(=O)O)cn(C3CC3)c12 (mixture of isomers) [Example 24, (R/S)-3-[1-(3-Carboxy-1-cyclopropyl-6-fluoro-8-methoxy-4-oxo-1,4-dihydroquinolin-7-yl)-piperidin-3-hydrazino-methylenyl]-rifamycin SV] | 0.008 to 0.03 µg/mL (≈ 0.00728 to 0.0273 µM) | 0.125 to 4 µg/mL (≈ 0.114 to 3.64 µM) | 0.008 to 1 µg/mL (≈ 0.00728 to 0.911 µM) | 0.008 to 0.125 µg/mL (≈ 0.00728 to 0.114 µM) | 0.06 to 16 µg/mL (≈ 0.0546 to 14.6 µM) | 0.008 to 0.06 µg/mL (≈ 0.00728 to 0.0546 µM) | 0.008 to 0.1 µg/mL (≈ 0.00728 to 0.0911 µM)
2 | COc1c(N2CCC(NC3CCN(/N=C/c4c5c(O)c6c(O)c(C)c7c(c6c4O)C(=O)[C@@](C)(O/C=C/[C@H](OC)[C@@H](C)[C@@H](OC(C)=O)[C@H](C)[C@H](O)[C@H](C)[C@@H](O)[C@@H](C)/C=C/C=C(/C)C(=O)N5)O7)CC3)C2)c(F)cc2c(=O)c(C(=O)O)cn(C3CC3)c12 (mixture of isomers) [Example 26, (R/S)-3-{4-[1-(3-Carboxy-1-cyclopropyl-6-fluoro-8-methoxy-4-oxo-1,4-dihydroquinolin-7-yl)-pyrrolidin-3-ylamino]-piperidin-1-yl-aminomethylenyl}-rifamycin SV] | 0.008 to 0.03 µg/mL (≈ 0.00685 to 0.0257 µM) | 0.125 to 4 µg/mL (≈ 0.107 to 3.43 µM) | 0.008 to 1 µg/mL (≈ 0.00685 to 0.857 µM) | 0.008 to 0.125 µg/mL (≈ 0.00685 to 0.107 µM) | 0.06 to 16 µg/mL (≈ 0.0514 to 13.7 µM) | 0.008 to 0.06 µg/mL (≈ 0.00685 to 0.0514 µM) | 0.008 to 0.1 µg/mL (≈ 0.00685 to 0.0857 µM)
3 | COc1c(N2CCN(C3CCN(/N=C/c4c5c(O)c6c(O)c(C)c7c(c6c4O)C(=O)[C@@](C)(O/C=C/[C@H](OC)[C@@H](C)[C@@H](OC(C)=O)[C@H](C)[C@H](O)[C@H](C)[C@@H](O)[C@@H](C)/C=C/C=C(/C)C(=O)N5)O7)C3)CC2)c(F)cc2c(=O)c(C(=O)O)cn(C3CC3)c12 (mixture of isomers) [Example 28, (R/S)-3-{3-[1-(3-carboxy-1-cyclopropyl-6-fluoro-8-methoxy-4-oxo-1,4-dihydroquinolin-7-yl)-piperazin-4-yl]-pyrrolidinyl-1-hydrazino-methylenyl}-rifamycin SV] | 0.008 to 0.03 µg/mL (≈ 0.00694 to 0.026 µM) | 0.125 to 4 µg/mL (≈ 0.108 to 3.47 µM) | 0.008 to 1 µg/mL (≈ 0.00694 to 0.867 µM) | 0.008 to 0.125 µg/mL (≈ 0.00694 to 0.108 µM) | 0.06 to 16 µg/mL (≈ 0.052 to 13.9 µM) | 0.008 to 0.06 µg/mL (≈ 0.00694 to 0.052 µM) | 0.008 to 0.1 µg/mL (≈ 0.00694 to 0.0867 µM)
4 | COc1c(N2CCC(N(Cc3ccccn3)/N=C/c3c4c(O)c5c(O)c(C)c6c(c5c3O)C(=O)[C@@](C)(O/C=C/[C@H](OC)[C@@H](C)[C@@H](OC(C)=O)[C@H](C)[C@H](O)[C@H](C)[C@@H](O)[C@@H](C)/C=C/C=C(/C)C(=O)N4)O6)C2)c(F)cc2c(=O)c(C(=O)O)cn(C3CC3)c12 (mixture of isomers) [Example 30, (R/S)-3-[1-(3-carboxy-1-cyclopropyl-6-fluoro-8-methoxy-4-oxo-1,4-dihydroquinolin-7-yl)-pyrrolidinyl-3-(pyridin-2-ylmethyl)hydrazino-methylenyl]-rifamycin SV] | 0.008 to 0.03 µg/mL (≈ 0.00681 to 0.0255 µM) | 0.125 to 4 µg/mL (≈ 0.106 to 3.4 µM) | 0.008 to 1 µg/mL (≈ 0.00681 to 0.851 µM) | 0.008 to 0.125 µg/mL (≈ 0.00681 to 0.106 µM) | 0.06 to 16 µg/mL (≈ 0.0511 to 13.6 µM) | 0.008 to 0.06 µg/mL (≈ 0.00681 to 0.0511 µM) | 0.008 to 0.1 µg/mL (≈ 0.00681 to 0.0851 µM)
5 | CO[C@H]1/C=C/O[C@@]2(C)Oc3c(C)c(O)c4c(O)c(c(/C=N/N5CCC(C(=O)NC6CCN(c7c(F)cc8c(=O)c(C(=O)O)cn(C9CC9)c8c7Cl)C6)CC5)c(O)c4c3C2=O)NC(=O)/C(C)=C\C=C\[C@H](C)[C@H](O)[C@@H](C)[C@@H](O)[C@@H](C)[C@H](OC(C)=O)[C@@H]1C (mixture of isomers) [Example 31, (R/S)-3-{4-[1-(3-Carboxy-8-chloro-1-cyclopropyl-6-fluoro-4-oxo-1,4-dihydroquinolin-7-yl)-pyrrolidin-3-ylcarbamoyl]-piperidin-1-yl-aminomethylenyl}-rifamycin SV] | 0.008 to 0.03 µg/mL (≈ 0.00667 to 0.025 µM) | 0.125 to 4 µg/mL (≈ 0.104 to 3.33 µM) | 0.008 to 1 µg/mL (≈ 0.00667 to 0.834 µM) | 0.008 to 0.125 µg/mL (≈ 0.00667 to 0.104 µM) | 0.06 to 16 µg/mL (≈ 0.05 to 13.3 µM) | 0.008 to 0.06 µg/mL (≈ 0.00667 to 0.05 µM) | 0.008 to 0.1 µg/mL (≈ 0.00667 to 0.0834 µM)
6 | COc1c(N2CCC(N3CCN(/N=C/c4c5c(O)c6c(O)c(C)c7c(c6c4O)C(=O)[C@@](C)(O/C=C/[C@H](OC)[C@@H](C)[C@@H](OC(C)=O)[C@H](C)[C@H](O)[C@H](C)[C@@H](O)[C@@H](C)/C=C/C=C(/C)C(=O)N5)O7)CC3)C2)c(F)cc2c(=O)c(C(=O)O)cn(C3CC3)c12 (mixture of isomers) [Example 33, (R/S)-3-{4-[1-(3-Carboxy-1-cyclopropyl-6-fluoro-8-methoxyoxo-1,4-dihydroquinolin-7-yl)-pyrrolidin-3-yl]-piperazin-1-yl-aminomethylenyl}-rifamycin SV] | 0.008 to 0.03 µg/mL (≈ 0.00694 to 0.026 µM) | 0.125 to 4 µg/mL (≈ 0.108 to 3.47 µM) | 0.008 to 1 µg/mL (≈ 0.00694 to 0.867 µM) | 0.008 to 0.125 µg/mL (≈ 0.00694 to 0.108 µM) | 0.06 to 16 µg/mL (≈ 0.052 to 13.9 µM) | 0.008 to 0.06 µg/mL (≈ 0.00694 to 0.052 µM) | 0.008 to 0.1 µg/mL (≈ 0.00694 to 0.0867 µM)
